Where “and” joins values, the source holds several entries; their conditions need not be identical. Equal entries are not always repeated. Where two headings read alike, the source gives them in different places.
Columns and labels:
[1] = type: in vivo, human; conditions: capillary plasma, pwCF, ivacaftor 150mg twice daily steady state, n = 8; for Cmax / half-life: human, oral, 150 mg
[2] = test system: HNEs, HBEs, and CFBEs; type: in vitro ADME, human; conditions: ALI cultures, 1000nM of Iva basolateral, 48 hours; for metabolite detected in apical or basolateral media: media prior to cell lysis (data not shown)
[3] = test system: 5-HT2C receptor; conditions: cited from earlier work
[4] = test system: β3-adrenergic receptor; conditions: cited from earlier work
[5] = test system: δ-opioid receptor; conditions: cited from earlier work
[6] = test system: dopamine transporter; conditions: cited from earlier work
[7] = test system: CYP3A4; conditions: in vitro; cited from earlier work
[8] = Metabolite:parent ratio; type: in vivo, human; conditions: capillary plasma, metabolite:Iva, 12 hour dosing interval
[9] = test system: 16HBE cells; assay: Uptake of metabolites into 16HBE cells at ALI, LC-MS/MS of cellular lysate; type: in vitro ADME, human; conditions: for mean concentration detected in the cells: 16HBE at ALI, 1000nM of the compound in basolateral media, 48 hours; for crossing of the plasma membrane of airway epithelial cells: 16HBE in vitro model
[10] = pwCF; cited from earlier work
[11] = test system: nasal brushings lysate; conditions: pwCF; cited from earlier work
[12] = test system: CFTR; conditions: cited from earlier work
[13] = test system: human nasal epithelial cells; assay: Capillary plasma versus nasal epithelial cell concentrations; type: in vivo; conditions: nasal epithelial cell lysate of participants taking ivacaftor
[14] = type: in vivo, human; conditions: plasma of a participant taking ivacaftor

With `CC(C)(C)c1cc(C(C)(C)C)c(NC(=O)c2c[nH]c3ccccc3c2=O)cc1O` [Iva, ivacaftor] the “Cavg, Mean (SD)” value [1] was 532 (343) ng/mL, the “Cavg, Median (min, max)” value [1] was 416(221, 1206) ng/mL and the “Cmin, Mean (SD)” value [1] was 352 (245) ng/mL. For the same compound, the “Cmin, Median (min, max)” value [1] was 287 (113, 813) ng/mL, the “Tmax, Median (min, max)” value [1] was 5 (4, 6) h and the Cmax ([1]; Mean (SD)) was 744 ng/mL. The Cmax ([1]; Median (min, max)) was 552 ng/mL, the half-life ([1]; T1/2, Mean (SD)) was 7.9 h and the half-life ([1]; T1/2, Median (min, max)) was 6.7 h. The “parent compound detected in cells” value ([2]; cell lysate) was “detected in all the cell types”, the affinity [3] was “significant affinity” and the affinity [4] was “significant affinity”. For the same compound, the affinity [5] was “significant affinity”, the affinity [6] was “significant affinity” and the “effect on CYP3A4 activity” value [7] was “reduce CYP3A4 activity”.
For `CC(C)(C)c1cc(C(C)(C)CO)c(O)cc1NC(=O)c1c[nH]c2ccccc2c1=O` [M1-Iva, hydroxymethyl ivacaftor], the “Cavg, Mean (SD)” value [1] was 726 (365) ng/mL, the “Cavg, Median (min, max)” value [1] was 607 (256, 1170) ng/mL and the “Cmax, Mean (SD)” value [1] was 1036 (520) ng/mL. The “Cmax, Median (min, max)” value [1] was 913 (402, 1750) ng/mL, the “Cmin, Mean (SD)” value [1] was 501 (228) ng/mL and the “Cmin, Median (min, max)” value [1] was 475 (55, 839) ng/mL. The “T1/2, Mean (SD)” value [1] was 9.2 (4.29) h, the “T1/2, Median (min, max)” value [1] was 8.7 (3.35, 16.4) h and the “Tmax, Mean (SD)” value [1] was 5.3 (0.7) h. The “Tmax, Median (min, max)” value [1] was 5 (4, 6) h, the “mean metabolite:parent ratio (MPR)” value [8] was 1.5 and the “mean concentration detected in the cells” value [9] was 1000 ng/ml and 2.5 μM. For the same compound, the “crossing of the plasma membrane of airway epithelial cells” value [9] was “readily enters the airway epithelial cells”, the “metabolite detected in cells treated with Iva” value ([2]; cell lysate) was “No M1-Iva and M6-Iva were detected” and the “metabolite detected in apical or basolateral media” value [2] was “no M1-Iva and M6-Iva were detected”. For the same compound, the “Cavg, venous plasma” value [10] was 3156 ng/mL, the “mean concentration in nasal brushings lysate” value [11] was 696 ng/mL and the “activity relative to parent Iva” value [12] was 1/6. For the same compound, the “potentiation activity relative to that of Iva” value [12] was 1/6 and the “effect on CYP3A4 activity” value [7] was “stronger inhibition”.
For `CC(C)(C)c1cc(C(C)(C)C(=O)O)c(O)cc1NC(=O)c1c[nH]c2ccccc2c1=O` [M6-Iva, ivacaftor carboxylate], the “Cavg, Mean (SD)” value [1] was 797 (430) ng/mL, the “Cavg, Median (min, max)” value [1] was 842 (231, 1418) ng/mL and the “Cmax, Mean (SD)” value [1] was 927 (456) ng/mL. The “Cmax, Median (min, max)” value [1] was 918 (265, 1630) ng/mL, the “Cmin, Mean (SD)” value [1] was 522 (365) ng/mL and the “Cmin, Median (min, max)” value [1] was 527 (5.8, 1070) ng/mL. The “T1/2, Mean (SD)” value [1] was 8.8 (6.6) h, the “T1/2, Median (min, max)” value [1] was 8.8 (4.2, 13.5) h and the “Tmax, Mean (SD)” value [1] was 6.9 (3.7) h. For the same compound, the “Tmax, Median (min, max)” value [1] was 8 (4, 10) h, the “mean metabolite:parent ratio (MPR)” value [8] was 1.6 and the “detection in cellular samples” value [13] was “found only in one cellular sample”. The “mean concentration detected in the cells” value [9] was 15 ng/ml and 0.04 μM, the “crossing of the plasma membrane of airway epithelial cells” value [9] was “does not readily cross the plasma membrane” and the “average concentration in the cellular lysate” value ([9]; 16HBE, 5000nM of the compound, 48 hours (data not shown)) was 81 ng/ml and 0.19 μM. The “metabolite detected in cells treated with Iva” value ([2]; cell lysate) was “No M1-Iva and M6-Iva were detected”, the “metabolite detected in apical or basolateral media” value [2] was “no M1-Iva and M6-Iva were detected” and the “Cavg, venous plasma” value [10] was 3821 ng/mL. The “activity relative to parent Iva” value [12] was “inactive metabolite” and the “potentiation activity relative to that of Iva” value [12] was 1/50.
With ivacaftor hydrate [Iva-hydrate] the “detection in plasma (qualitative)” value [14] was “small peaks”.

From article PMC12499601 (Pulmonary pharmacology & therapeutics, 2024)
